Consider 2 molecules from patent US9931300B2, “Methods for superdisintegrant-based composite particles for dispersion and dissolution of active pharmaceutical agents” (New Jersey Institute of Technology, priority 2012, dated 2018).

The conditions of data set [1]: cited from earlier work.
Data set [2] is described as follows: USP II dissolution test of NCMPs in deionized water. Format: physicochemical. How it is done:
Dissolution tests were carried out in a standard USP II apparatus with about 50 rpm paddle speed. A sample of NCMPs (n=6) containing about 8.9 mg GF were dissolved in about 1000 ml deionized water at about 37° C., and samples taken from the vessel were syringe-filtered (0.1 μm filter) and assayed via UV spectroscopy. Unlike in the re-dispersion test, the use of a large amount of water ensures substantially full solubilization of the drug in this test.

Data set [3] in a line: Particle size of as-received / dry powders (Rodos/Helos laser diffraction where stated). It counts as physicochemical. To be noted: as-received or dry. How it is done: The particle sizes of GF suspensions after milling in Runs 2, 3, and 5 (about 10% GF/about 2.5% HPC) indicate that the milling results were fairly reproducible. […] The dry particle size of CCS, as measured by Rodos/Helos laser diffraction system, was D10: 12.90 μm, D50: 28.55 μm, and D90: 66.09 The particle size increased to D10:13.74 μm, D50: 63.68 μm and D90: 96.28 μm after about 3 h swelling in de-ionized water as measured by Coulter LS13320 with the liquid module.
The suspensions were coated onto Pharmatose® carrier particles in the fluidized bed processor. The particle size statistics of Pharmatose® as measured by Rodos is D10: 58 μm, D50: 116 μm and D90: 206 μm. The median particle size of Pharmatose® increased from about 116 μm to about 120-150 μm due to coating and some agglomeration.

Consider `OC[C@@H](O)[C@@H](O)[C@H](O)[C@H](O)CO` [Mannitol], for which, in data set [1] (water), the solubility in water result was “about 180 g/L”.

For `COC1=CC(=O)C[C@@H](C)[C@]12Oc1c(Cl)c(OC)cc(OC)c1C2=O` [GF, griseofulvin], the “GF dissolved in about 60 min” value in data set [2] is listed as “about 14%”. Also, in data set [3], the “particle size D10 of as-received / dry powder” value was 3.9 μm, the “particle size D50 of as-received / dry powder” value is 16.0 μm and the “particle size D90 of as-received / dry powder” value worked out at 47.4 μm. Further, in data set [1] (methanol, about 25° C.), the solubility in methanol result was “about 30 mg/ml”.
